Experimental data as given in patent US6706764B2, “Use of creatine or creatine analogs for the treatment of diseases of the nervous system” (Avicena Group, Inc., priority 1994, dated 2004).

How the values were obtained:
creatine kinase [1] = settings: forward reaction, both in vitro and in vivo; cited from earlier work
[2] = tested on: MPTP induced dopaminiergic toxicity; assay: MPTP model for Parkinson's disease, striatal dopamine, DOPAC and HVA by HPLC; type: in vivo, male Swiss Webster mice; settings: for neuroprotection against dopamine depletions: dose response
Method: The effect of two representative creatine compounds, creatine and cyclocreatine, were evaluated using this model. Creatine and cyclocreatine were administered in the initial pilot experiment as 1% formulation in the feed of animals, and was administered for three weeks before MPTP treatment. MPTP was administered intraperitoneally at a dose of 15 mg/kg every 2 hours for five injections. The animals then remained on either creatine or cyclocreaine supplemented diets for 1 week before sacrifice. The mice examined were male Swiss Webster mice weighing 30-35 grams obtained from Taconic Farms. Control groups recieved either normal saline or MPTP hydrochloride alone. MPTP was administered in 0.1 ml of water. The MPTP was obtained from Research Biochemicals. Eight to twelve animals were examined in each group. Following sacrifice the two striata were rapidly dissected and placed in chilled 0.1 M perchloric acid. Tissue was subsequently sonicated, and aliquots were taken for protein quantification using a fluorometer assay. Dopamine, 3,4-dihydroxyphenylacetic acid (DOPAC), and homovanillic acid (HVA) were quantified by HPLC with 16 electrode electrochemical detection. Concentrations of dopamine and metabolites were expressed as nmol/mg protein. The statistical significance of differences was determined by one-way ANOVA followed by Fisher PLSDpost-hoc test to compare group means.
A dose response study was conducted where the creatine dose was 0.25%-3.0% of the diet and cyclocreatine 0.25-1.0% of the diet.

[3] = cited from earlier work
[4] = mice, up to 1% of diet for 2 weeks or for over 4 weeks; cited from earlier work
[5] = cited from earlier work; remark: listed apart in the source
viral infections = settings: 1% dietary; cited from earlier work
[6] = tested on: malonate induced striatal lesions; assay: Malonate induced striatal lesions, model for Huntington's disease; type: in vivo, rats
Method: We initially examined whether oral administration of creatine or its analogue cyclocreatine could attenuate malonate lesions. Creatine was administered orally to rats in their feed at doses of 0.25-3.0% of the diet. Cyclocreatine was administered at 0.2-1.0%. Controls received unsupplemented otherwise identical diets. The compounds were administered for two weeks prior to the administration of malonate and then for a further week prior to sacrifice. Malonate was dissolved in distilled deionized water and the pH wad adjusted to 7.4 with 0.1 m HCI. Intrastriatal injections of 1.5 ul of malonate containing 3 μmol were made into the striatum at the level of the Bregma 2.4 mm lateral to the midline and 4.5 mm ventral to the dura. Animals were sacrificed at 7 days by decapitation, and the brains were quickly removed and placed in ice cold 0.9% saline solution. Brains were sectioned at 2 mm intervals. Slices were then placed posterior side down in 2% 2,3,5-triphenyltetrazolium chloride. Slices were stained in the dark at room temperature for 30 minutes and then removed and placed in 4% paraformaldehyde, pH 7.3. Lesions, noted by pale staining, were evaluated on the posterior surface of each section using a Bioquant 4 system by an experienced histologist blinded to experimental conditions. These measurements have been validated by comparing them to measurements obtained on adjacent Nissl stain sections.

[7] = fed to mice, rats and chicks; cited from earlier work
creatine kinase [8] = settings: cited from earlier work
MPTP toxicity = MPTP toxicity in mice, earlier work of the inventors; type: in vivo
From the text: This metabolite is formed by the activity of monoamine oxidase on MPTP. Inhibitors of monoamine oxidase block the neurotoxicity of MPTP in both mice and primates. The specificity of the neurotoxic effects of MPP^+ for dopaminergic neurons appears to be due to the uptake of MPP^+ by the synaptic dopamine transporter. Blockers of this transporter prevent MPP^+ neurotoxicity. […] It binds to complex I at the retenone binding site. […] In vivo studies have shown that MPTP can deplete striatal ATP concentrations in mice.

[9] = tested on: malonate striatal excitotoxic lesions; settings: cited from earlier work; for protection against lesions in the malonate animal model: intrastriatal malonate; for ATP depletion produced by malonate in vivo: rat
[10] = compared with phosphocreatine; cited from earlier work
[11] = intravenous injection, up to 8 grams/day, patients with cardiac diseases; cited from earlier work
[12] = pilot, 1% in feed, oral, FIG. 4

NC1=NCCN1CC(=O)O [cyclocreatine, 1-carboxymethyl-2-iminoimidazolidine]
phosphorylation by creatine kinase (creatine kinase [1]): phosphorylated efficiently | protection against HVA depletion ([2]; 0.5% of the diet, FIG. 5): not seen | effect on 3-4-dihydroxyphenyl acetic acid (DOPAC) ([2]; dose response study, FIG. 5): neuroprotection effects | effect on homovanillic acid (HVA) ([2]; dose response study, FIG. 5): neuroprotection effects | neuroprotection against dopamine depletions ([2]; 0.5% of the diet, FIG. 5): significant protection | neuroprotection against dopamine depletions ([2]; 1.0% of the diet, FIG. 5): significant protection | effect against MPTP induced depletions of homovanillic acid [2, 12]: effective | neuroprotection against MPTP induced dopamine depletions [2, 12]: significant neuroprotection | neuroprotective effect compared with creatine [2, 12]: greater than that seen with creatine alone | protection against DOPAC depletions induced by MPTP [2, 12]: significantly protected | growth ([3]; in vivo): grew more slowly than control chicks | mortality ([3]; newly hatched chicks, diet containing 1%, in the presence of antibiotics): without significant mortality | gross adverse effects [4]: without gross adverse effects | accumulation in different organs ([5]; feeding animals e.g. 1% dietary): mM concentrations | tissue uptake ([5]; rats receiving dietary 1%): taken up by muscle, heart and brain | antiviral activity (viral infections): observed | neuroprotection against malonate induced striatal lesions ([6]; dose of 1% in the diet, FIG. 2): significant | neuroprotection against malonate induced striatal lesions, dose response ([6]; increasing doses in the diet: creatine 0.25-3%, cyclocreatine 0.2-1.0%, FIG. 2): dose dependent neuroprotective effects | protection against striatal malonate lesions (lesion volume) ([6]; initial pilot experiment, oral supplementation in feed, FIG. 1): protected against striatal malonate lesions | tolerability [7]: well-tolerated

isoepoxycreatine
inactivation of creatine kinase (creatine kinase [8]): completely and irreversibly inactivate

COC1=C(OC)C(=O)C(C/C=C(\C)CC/C=C(\C)CC/C=C(\C)CC/C=C(\C)CC/C=C(\C)CC/C=C(\C)CC/C=C(\C)CC/C=C(\C)CC/C=C(\C)CCC=C(C)C)=C(C)C1=O [Q10, coenzyme Q10]
protection against MPTP toxicity (MPTP toxicity): significantly protect | protection against lesions in the malonate animal model [9]: dose dependent protection | ATP depletion produced by malonate in vivo [9]: attenuated

NC(=O)c1cccnc1 [nicotinimide]
protection against lesions in the malonate animal model [9]: dose dependent protection | ATP depletion produced by malonate in vivo [9]: attenuated

3-phosphoryl-1-carboxymethyl-2-iminoimidazolidine [cyclocreatine phosphate]
stability of the P-N bond [10]: more stable than that of phosphocreatine

N=C(N)N(CC(=O)O)CC1CO1 (stereo not shown) [epoxycreatine]
inactivation of creatine kinase (creatine kinase [8]): completely and irreversibly inactivate

O=C(O)CCC(=O)O [succinate]
malonate lesions on co-injection ([9]; co-injection with malonate): blocks the lesions

Nc1nnc(-c2cccc(Cl)c2Cl)c(N)n1 [lamotrigine]
protection against lesions in the malonate animal model [9]: attenuates the lesions

N-phosphoryl creatine [creatine phosphate]
adverse side effects [11]: no adverse side effects
